Article PMC5823406, “Vehicle development, pharmacokinetics and toxicity of the anti-invasive agent 4-fluoro-3’,4’,5’-trimethoxychalcone in rodents” (PLoS ONE, 2018)

Assays:
[1] = Liver microsome stability; format: in vitro ADME; conditions: liver microsomes (rat, Sprague-Dawley)
Excerpt: (§1) Table 3 In vitro physicochemical, stability and metabolism data. | column: Value

[2] = biological target: CYP 2D6 (Homo sapiens, UniProt P10635); experiment: CYP inhibition 2D6 (MFC substrate); format: in vitro ADME; conditions: 10 μM
Excerpt: as §1

CYP 2D6, sequence (P10635 whole entry): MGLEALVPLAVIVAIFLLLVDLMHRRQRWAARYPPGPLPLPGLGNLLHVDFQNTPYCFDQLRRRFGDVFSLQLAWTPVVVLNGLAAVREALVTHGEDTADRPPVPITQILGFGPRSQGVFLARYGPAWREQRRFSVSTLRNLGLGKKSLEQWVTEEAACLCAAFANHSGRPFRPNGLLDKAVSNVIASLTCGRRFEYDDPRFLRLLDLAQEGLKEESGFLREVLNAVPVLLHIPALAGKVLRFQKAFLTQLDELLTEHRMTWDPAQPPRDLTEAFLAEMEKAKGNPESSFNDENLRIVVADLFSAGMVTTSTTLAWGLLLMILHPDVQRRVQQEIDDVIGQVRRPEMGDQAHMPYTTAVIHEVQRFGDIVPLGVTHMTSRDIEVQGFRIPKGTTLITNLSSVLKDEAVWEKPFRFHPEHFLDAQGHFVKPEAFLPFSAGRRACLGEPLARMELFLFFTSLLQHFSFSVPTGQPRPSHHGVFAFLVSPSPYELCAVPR

COc1cc(C(=O)/C=C/c2ccc(F)cc2)cc(OC)c1OC [C16, 4-fluoro-3’,4’,5’-trimethoxychalcone]
half-life at 0.1 μM [1]: 20 min
microsomal CLint at 0.1 μM ([1]; read-out: Intr. clearance): 339 µL/min/mg
CYP inhibition 2D6 (MFC substrate) [2]: -19 % inhibition of control
